Measurements published in patent US20230151057A1, “LACTIC ACID BACTERIA GROWTH PROMOTER” (Asahi Group Holdings, Ltd., priority 2020, published 2023).
Ends that are not written are not given here.

Legend:
Assay type in all cases: cell-based
[1] = system: Lactobacillus gasseri (FERM BP-11331); experiment: Growth-promoting effect on Lactobacillus gasseri in modified MRS medium (particle count)
Excerpt: Nitrogen sources in MRS medium were reduced to find a medium composition that achieves a total bacterial count of about 1.0×10^8 cell/mL to 1.0×10^9 cell/mL after culturing of each of the six bacterial strains Lactobacillus gasseri (FERNM BP-11331), Lactobacillus acidophilus (FERM BP-4981), Lactobacillus amylovorus (FERM BP-11255), Lactobacillus curvatus (NITE P-02033), Lactobacillus plantarum, and Lactobacillus brevis. This composition, named “modified MRS medium”, was used for the evaluation. Here, for the composition of the MRS medium, a composition described in a medium catalog provided by BD (Becton, Dickinson and Company) was used as a reference. The compositions of the MRS medium and the modified MRS medium are as follows. By chemical synthesis, 28 kinds of candidate peptides having the sequences shown below were provided. Each candidate peptide was added to the modified MRS medium at 0.25 mg/mL to provide a medium to be evaluated. The lactic acid bacterium Lactobacillus gasseri was inoculated at 1.0×10^7 cells/mL to the provided medium to be evaluated, and culture was carried out at a temperature of 37° C. for a culture period of 18 hours. The resulting culture was collected, and subjected to measurement of the particle concentration (particles/mL) as a characteristic value that can be used as an index of the bacterial cell growth, using a particle count analyzer (CDA-1000, Sysmex). The rate of increase (%) was calculated relative to a control value obtained using a medium to which no peptide was added, which was taken as 100%. Using the dipeptide LF (Leu-Phe) and an equimolar mixture of leucine (L) and phenylalanine (F), culture was carried out in the same manner as in Example 1, and the growth-promoting effects of the dipeptide and the amino acid mixture on the lactic acid bacterium were evaluated. Using a dipeptide (LF) as the peptide, the growth-promoting effect on a lactic acid bacterium was evaluated in the same manner except that the concentration of the dipeptide added was 0.1 mg/mL, 0.25 mg/mL, or 1.0 mg/mL.

Lactobacillus plantarum = experiment: Growth-promoting effect on Lactobacillus plantarum in modified MRS medium (particle count); settings: Example 5, peptide 0.25 mg/mL, 37° C., 18 hours; for Rate of increase: control = 100%
Excerpt: Nitrogen sources in MRS medium were reduced to find a medium composition that achieves a total bacterial count of about 1.0×10^8 cell/mL to 1.0×10^9 cell/mL after culturing of each of the six bacterial strains Lactobacillus gasseri (FERNM BP-11331), Lactobacillus acidophilus (FERM BP-4981), Lactobacillus amylovorus (FERM BP-11255), Lactobacillus curvatus (NITE P-02033), Lactobacillus plantarum, and Lactobacillus brevis. This composition, named “modified MRS medium”, was used for the evaluation. Here, for the composition of the MRS medium, a composition described in a medium catalog provided by BD (Becton, Dickinson and Company) was used as a reference. The compositions of the MRS medium and the modified MRS medium are as follows. By chemical synthesis, 28 kinds of candidate peptides having the sequences shown below were provided. Each candidate peptide was added to the modified MRS medium at 0.25 mg/mL to provide a medium to be evaluated. The lactic acid bacterium Lactobacillus gasseri was inoculated at 1.0×10^7 cells/mL to the provided medium to be evaluated, and culture was carried out at a temperature of 37° C. for a culture period of 18 hours. The resulting culture was collected, and subjected to measurement of the particle concentration (particles/mL) as a characteristic value that can be used as an index of the bacterial cell growth, using a particle count analyzer (CDA-1000, Sysmex). The rate of increase (%) was calculated relative to a control value obtained using a medium to which no peptide was added, which was taken as 100%. For eight kinds of candidate peptides having the sequences shown below, the growth-promoting effect on a lactic acid bacterium was evaluated in the same manner as in Example 1 except that Lactobacillus plantarum was used instead of Lactobacillus gasseri.

Lactobacillus brevis = experiment: Growth-promoting effect on Lactobacillus brevis in modified MRS medium (particle count); settings: Example 6, peptide 0.25 mg/mL, 37° C., 18 hours; for Rate of increase: control = 100%
Excerpt: Nitrogen sources in MRS medium were reduced to find a medium composition that achieves a total bacterial count of about 1.0×10^8 cell/mL to 1.0×10^9 cell/mL after culturing of each of the six bacterial strains Lactobacillus gasseri (FERNM BP-11331), Lactobacillus acidophilus (FERM BP-4981), Lactobacillus amylovorus (FERM BP-11255), Lactobacillus curvatus (NITE P-02033), Lactobacillus plantarum, and Lactobacillus brevis. This composition, named “modified MRS medium”, was used for the evaluation. Here, for the composition of the MRS medium, a composition described in a medium catalog provided by BD (Becton, Dickinson and Company) was used as a reference. The compositions of the MRS medium and the modified MRS medium are as follows. By chemical synthesis, 28 kinds of candidate peptides having the sequences shown below were provided. Each candidate peptide was added to the modified MRS medium at 0.25 mg/mL to provide a medium to be evaluated. The lactic acid bacterium Lactobacillus gasseri was inoculated at 1.0×10^7 cells/mL to the provided medium to be evaluated, and culture was carried out at a temperature of 37° C. for a culture period of 18 hours. The resulting culture was collected, and subjected to measurement of the particle concentration (particles/mL) as a characteristic value that can be used as an index of the bacterial cell growth, using a particle count analyzer (CDA-1000, Sysmex). The rate of increase (%) was calculated relative to a control value obtained using a medium to which no peptide was added, which was taken as 100%. For eight kinds of candidate peptides having the sequences shown below, the growth-promoting effect on a lactic acid bacterium was evaluated in the same manner as in Example 1 except that Lactobacillus brevis was used instead of Lactobacillus gasseri.

[2] = Example 1, peptide 0.25 mg/mL, 37° C., 18 hours, inoculum 1.0×10^7 cells/mL
[3] = Example 1, peptide 0.25 mg/mL, 37° C., 18 hours, control without peptide = 100%

Substance | Particle concentration [1, 2] [mL⁻¹] | Rate of increase [1, 3] [%] | Particle concentration (Lactobacillus plantarum) [mL⁻¹] | Rate of increase (Lactobacillus plantarum) [%] | Particle concentration (Lactobacillus brevis) [mL⁻¹] | Rate of increase (Lactobacillus brevis) [%] | Particle concentration ([1]; Comparative Example 1, dipeptide vs equimolar amino acid mixture, cultured as in Example 1) [mL⁻¹] | Rate of increase ([1]; Comparative Example 1, dipeptide vs equimolar amino acid mixture, control = 100%) [%] | Particle concentration ([1]; Example 7, addition concentration 0.1 mg/mL) [mL⁻¹] | Rate of increase ([1]; Example 7, addition concentration 0.1 mg/mL, control = 100%) [%] | Particle concentration ([1]; Example 7, addition concentration 0.25 mg/mL) [mL⁻¹] | Rate of increase ([1]; Example 7, addition concentration 0.25 mg/mL, control = 100%) [%] | Particle concentration ([1]; Example 7, addition concentration 1.0 mg/mL) [mL⁻¹] | Rate of increase ([1]; Example 7, addition concentration 1.0 mg/mL, control = 100%) [%]
AGPQTF | 2.5e+08 | 126 | 3.36e+09 | 108 | 1.16e+09 | 106 |  |  |  |  |  |  |  | 
APKPDYPIA (listed as Saccharomyces cerevisiae) [Ala-Pro-Lys-Pro-Asp-Tyr-Pro-Ile-Ala] | 2.37e+08 | 137 | 3.45e+09 | 111 | 1.12e+09 | 103 |  |  |  |  |  |  |  | 
Leu-Phe [LF] | 2.49e+08 | 118 | 3.32e+09 | 107 | 1.24e+09 | 114 | 3.88e+08 | 121 | 2.38e+08 | 112 | 2.49e+08 | 118 | 3.17e+08 | 150
Leu-Pro-Trp-Gly (LPWG; listed as Saccharomyces cerevisiae) | 2.45e+08 | 142 | 3.09e+09 | 100 | 1.18e+09 | 108 |  |  |  |  |  |  |  | 
Pro-Ser-Val-Phe (PSVF; listed as Saccharomyces cerevisiae) | 2.32e+08 | 134 | 3.17e+09 | 102 | 1.16e+09 | 106 |  |  |  |  |  |  |  | 
Pro-Val-Phe [PVF] | 2.51e+08 | 137 | 2.92e+09 | 94 | 1.17e+09 | 107 |  |  |  |  |  |  |  | 
Pro-Val-Tyr [PVY] | 2.27e+08 | 121 | 3.23e+09 | 104 | 1.17e+09 | 107 |  |  |  |  |  |  |  | 
Val-Pro-Ala-Phe (VPAF; listed as Saccharomyces cerevisiae) | 2.62e+08 | 152 | 3.27e+09 | 105 | 1.16e+09 | 106 |  |  |  |  |  |  |  | 
